In patent publication US6479435B1, “Diaryl ethers and processes for their preparation and herbicidal and desiccant compositions containing them” (ISK Americas Incorporated, priority 1997, dated 2002):

Columns and labels:
Assay type in all cases: in vivo
[1] = test system: common ragweed (Ambrosia artemisiifolia L., AMBEL); assay: Post-emerge greenhouse herbicide test, phytotoxicity rating; details: 14 days after application
Method in brief: (§1)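 Scores use a 0 (no damage) to 100 (complete kill) scale, taken 14 days after a foliar spray. Acetone solutions with 0.25% v/v non-ionic surfactant were applied by track sprayer at 187 l/ha and 63-1000 g ai/ha to bottom-watered 2-3 leaf plants.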

[2] = test system: upland rice (Oryza sp., var.Tebonnet, RICE); assay: Pre-emerge greenhouse test, crop damage rating; details: 14 days after application, rating scale 0-100
Method in brief: (§2)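 Visual 0–100 injury rating (100 = all plants dead) taken 14 days after treatment. Rates of 125–1000 g ai/ha in acetone, 187 l/ha, were sprayed onto soil one day post-sowing; pots were surface-watered to incorporate, then bottom-watered.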

[3] = test system: field corn (Zea mays L., var. Dekalb 535, CORN); assay: Pre-emerge greenhouse test, crop damage rating; details: 14 days after application, rating scale 0-100
Method in brief: as §2

[4] = test system: lambsquarters (Chenopodium album, CHEAL); assay: Post-emerge greenhouse herbicide test, phytotoxicity rating; details: 14 days after application
Method in brief: as §1

[5] = test system: barnyardgrass (Echinochloa crusgalli, ECHCG); assay: as above; details: 14 days after application
Method in brief: as §1

[6] = test system: ivyleaf morningglory (Ipomoea hederacea, IPOHE); assay: as above; details: 14 days after application
Method in brief: as §1

[7] = test system: velvetleaf (Abutilon theophrasti, ABUTH); assay: as above; details: 14 days after application
Method in brief: as §1

[8] = test system: green foxtail (Setaria viridis, SETVI); assay: as above; details: 14 days after application
Method in brief: as §1

[9] = test system: large crabgrass (Digitaria sanguinalis, DIGSA); assay: as above; details: 14 days after application
Method in brief: as §1

[10] = test system: Johnsongrass (Sorghum halepense, SORHA); assay: as above; details: 14 days after application
Method in brief: as §1

[11] = test system: redroot pigweed (Amaranthus retroflexus, AMARE); assay: as above; details: 14 days after application
Method in brief: as §1

[12] = test system: lambsquarters (Chenopodium album, CHEAL); assay: Pre-emerge greenhouse herbicide test, phytotoxicity rating; details: 14 days after application, rating scale 0-100
Method in brief: as §2

[13] = test system: common ragweed (Ambrosia artemisiifolia L., AMBEL); assay: as above; details: 14 days after application, rating scale 0-100
Method in brief: as §2

[14] = test system: barnyardgrass (Echinochloa crusgalli, ECHCG); assay: as above; details: 14 days after application, rating scale 0-100
Method in brief: as §2

[15] = test system: ivyleaf morningglory (Ipomoea hederacea, IPOHE); assay: as above; details: 14 days after application, rating scale 0-100
Method in brief: as §2

[16] = test system: velvetleaf (Abutilon theophrasti, ABUTH); assay: as above; details: 14 days after application, rating scale 0-100
Method in brief: as §2

[17] = test system: green foxtail (Setaria viridis, SETVI); assay: as above; details: 125 g ai/ha, 14 days after application, rating scale 0-100
Method in brief: as §2

[18] = test system: large crabgrass (Digitaria sanguinalis, DIGSA); assay: as above; details: 14 days after application, rating scale 0-100
Method in brief: as §2

[19] = test system: Johnsongrass (Sorghum halepense, SORHA); assay: as above; details: 14 days after application, rating scale 0-100
Method in brief: as §2

[20] = test system: redroot pigweed (Amaranthus retroflexus, AMARE); assay: as above; details: 14 days after application, rating scale 0-100
Method in brief: as §2

[21] = test system: sicklepod (Cassia obtusifolia, CASOB); assay: as above; details: 14 days after application, rating scale 0-100
Method in brief: as §2

[22] = test system: upland rice (Oryza sp., var.Tebonnet, RICE); assay: Post-emerge greenhouse test, crop damage rating; details: 14 days after application
Method in brief: as §1

[23] = test system: field corn (Zea mays L., var. Dekalb 535, CORN); assay: Post-emerge greenhouse test, crop damage rating; details: 14 days after application
Method in brief: as §1

[24] = test system: soybean (Glycine max L., var. Pella 86, SOY); assay: Post-emerge greenhouse test, crop damage rating; details: 14 days after application
Method in brief: as §1

[25] = test system: soybean (Glycine max L., var. Pella 86, SOY); assay: Pre-emerge greenhouse test, crop damage rating; details: 14 days after application, rating scale 0-100
Method in brief: as §2

With `Cn1nc(-c2cc(Oc3ncccc3C#N)c(Cl)cc2F)c(Cl)c1C(F)(F)F` [Compound 1-3] the “AMBEL phytotoxicity rating (0-100)” value ([1]; 63 g al/ha) was 0, the “AMBEL phytotoxicity rating (0-100)” value ([1]; 500 g al/ha) was 80 and the “crop damage rating RICE” value ([2]; 125 g ai/ha) was 0. For the same compound, the “crop damage rating RICE” value ([2]; 500 g ai/ha) was 30, the “crop damage rating CORN” value ([3]; 125 g ai/ha) was 0 and the “crop damage rating CORN” value ([3]; 500 g ai/ha) was 40. The “CHEAL phytotoxicity rating (0-100)” value ([4]; 63 g al/ha) was 95, the “CHEAL phytotoxicity rating (0-100)” value ([4]; 500 g al/ha) was 100 and the “ECHCG phytotoxicity rating (0-100)” value ([5]; 63 g al/ha) was 0. For the same compound, the “ECHCG phytotoxicity rating (0-100)” value ([5]; 500 g al/ha) was 70, the “IPOHE phytotoxicity rating (0-100)” value ([6]; 63 g al/ha) was 90 and the “IPOHE phytotoxicity rating (0-100)” value ([6]; 500 g al/ha) was 10. For the same compound, the “ABUTH phytotoxicity rating (0-100)” value ([7]; 63 g al/ha) was 70, the “ABUTH phytotoxicity rating (0-100)” value ([7]; 500 g al/ha) was 100 and the “SETVI phytotoxicity rating (0-100)” value ([8]; 63 g al/ha) was 0. For the same compound, the “SETVI phytotoxicity rating (0-100)” value ([8]; 500 g al/ha) was 90, the “DIGSA phytotoxicity rating (0-100)” value ([9]; 63 g al/ha) was 0 and the “DIGSA phytotoxicity rating (0-100)” value ([9]; 500 g al/ha) was 80. For the same compound, the “SORHA phytotoxicity rating (0-100)” value ([10]; 63 g al/ha) was 20, the “SORHA phytotoxicity rating (0-100)” value ([10]; 500 g al/ha) was 80 and the “AMARE phytotoxicity rating (0-100)” value ([11]; 63 g al/ha) was 100. For the same compound, the “AMARE phytotoxicity rating (0-100)” value ([11]; 500 g al/ha) was 100, the “phytotoxicity rating CHEAL” value ([12]; 125 g ai/ha) was 90 and the “phytotoxicity rating CHEAL” value ([12]; 500 g ai/ha) was 100. The “phytotoxicity rating AMBEL” value ([13]; 125 g ai/ha) was 50, the “phytotoxicity rating AMBEL” value ([13]; 500 g ai/ha) was 50 and the “phytotoxicity rating ECHCG” value ([14]; 125 g ai/ha) was 0. For the same compound, the “phytotoxicity rating ECHCG” value ([14]; 500 g ai/ha) was 100, the “phytotoxicity rating IPOHE” value ([15]; 125 g ai/ha) was 0 and the “phytotoxicity rating IPOHE” value ([15]; 500 g ai/ha) was 30. The “phytotoxicity rating ABUTH” value ([16]; 125 g ai/ha) was 20, the “phytotoxicity rating ABUTH” value ([16]; 500 g ai/ha) was 0 and the “phytotoxicity rating SETVI” value [17] was 95. For the same compound, the “phytotoxicity rating DIGSA” value ([18]; 125 g ai/ha) was 20, the “phytotoxicity rating DIGSA” value ([18]; 500 g ai/ha) was 0 and the “phytotoxicity rating SORHA” value ([19]; 125 g ai/ha) was 0. For the same compound, the “phytotoxicity rating SORHA” value ([19]; 500 g ai/ha) was 40, the “phytotoxicity rating AMARE” value ([20]; 125 g ai/ha) was 100 and the “phytotoxicity rating AMARE” value ([20]; 500 g ai/ha) was 100. For the same compound, the “phytotoxicity rating CASOB” value ([21]; 125 g ai/ha) was 0, the “phytotoxicity rating CASOB” value ([21]; 500 g ai/ha) was 80 and the “RICE crop damage rating (0-100)” value ([22]; 63 g al/ha) was 20. For the same compound, the “RICE crop damage rating (0-100)” value ([22]; 500 g al/ha) was 70, the “CORN crop damage rating (0-100)” value ([23]; 63 g al/ha) was 0 and the “CORN crop damage rating (0-100)” value ([23]; 500 g al/ha) was 10. For the same compound, the “SOY crop damage rating (0-100)” value ([24]; 63 g al/ha) was 30, the “SOY crop damage rating (0-100)” value ([24]; 500 g al/ha) was 90 and the “crop damage rating SOY” value ([25]; 125 g ai/ha) was 0. For the same compound, the “crop damage rating SOY” value ([25]; 500 g ai/ha) was 95.
